Series [1] deals with Total cholesterol in serum (hypercholesterolemic mice). The experiment in a line: Blood cholesterol lowering activity (total serum cholesterol in mice given a lipid emulsion). In kind it is in vivo, dd-Male mice. As to conditions: for Serum cholesterol value: p.o., 17 hours after second administration. As to the method: dd-Male mice weighing about 25 g (one group: 10 mice) were allowed to fast for 12 hours, and thereto was orally administered a lipid emulsion (olive oil 32.7%, cholesterol 2.5%, sodium cholate 1.8%, sucrose 41.9%, and water 21.1%) in a dose of 25.5 ml/kg. A suspension of a test compound in gum arabic was orally administered to the mice twice, i.e. immediately after and […] after the administration of the lipid emulsion. 17 hours after the second administration of test compound, blood was collected from descending abdominal aorta under ether anesthesia. Total cholesterol in serum was measured by COD-p-chlorophenol colorimetry. As a reference compound, there was used Nicomol (chemical name: 2,2,6,6-tetrakis(nicotinoyloxymethyl)cyclohexanol) which is commercially available anticholesteremic agent.
Serum cholesterol values at 17 hours after the second administration of test compound were compared with the serum cholesterol values in normal mice and hypercholesterolemic mice.

For series [2], the system named is blood cholesterol concentration. To be noted: known agents, background; cited from earlier work.
The next series is described as follows: Acute toxicity (LD50). As to conditions: mouse, in vivo; mice, oral administration. The procedure:
The compounds of this invention show a low toxicity. For instance, Compound 1 and Compound 2 have LD50 of more than 5,000 mg/kg in mice (by oral administration).

The subject of series [3] is glutamic pyruvic transaminase (GPT) in serum, CCl4-administered mice. Nature of the series: Activity against carbon tetrachloride-induced hepatic disease (serum GPT). The format is in vivo, dd male mice. The procedure: (§1) To dd male mice weighing 18-20 g (one group: 10 mice) was orally administered a suspension of a test compound in gum arabic twice or three times per day. On the third day, 1% carbon tetrachloride (v/v % in olive oil) was subcutaneously injected at the back of the mice in a dose of 2 ml/kg one hour after the last administration of test compound. 19 hours after the injection of CCl4, a suspendion of a test compound in gum arabic was orally administerd. After one hour, the mice were subjected to laparotomy under ether anesthesia and blood was collected from the descending abdominal aorta. The blood thus collected was centrifuged at 3,000 r.p.m. for 15 minutes. The enzymatic activities of glutamic oxaloacetic transaminase (GOT) and glutamic pyruvic transaminase (GPT) in serum were measured with S.TA-Test Wako (manufactured by Wako Pure Chemical Industries, Ltd., Japan).
(§2) The activities of GOT and GPT in serum of the mice which were administered test compounds were compared with the GOT and GPT activities in serum of normal mice and 1% CCl4 (v/v % in olive oil)-administered mice.

Series [4] has as its system ornithine carbamyl transferase (OCT) in serum, ethanol-administered mice. The experiment in a line: Activity against alcoholic hepatic disease (serum OCT activity). In kind it is in vivo, dd-Male mice. The procedure: dd-Male mice (4 weeks age, weighing about 15 g, one group: 10 mice) were fed with a hyperlipid feed [composition: cholesterol 1.0%, sodium cholate 0.5%, butter 5.0%, sucrose 30.0%, casein 10.0%, and M powder feed (manufactured by Oriental Yeast Co., Ltd., Japan) 53.5%] for 4 weeks. During the feeding, a suspension of a test compound in gum arabic and a 20% aqueous ethanol (15 ml/kg) were orally administered twice a day (morning and evening). After 4 weeks, mice were subjected to laparotomy under ether anesthesia, and blood was collected from the descending abdominal aorta. The blood thus collected was centrifuged at 3,000 r.p.m. for 15 minutes, and the enzymatic activity of ornithine carbamyl transferase (OCT) was measured with OCT-Test Wako (manufactured by Wako Pure Chemical Industries, Ltd., Japan).
The OCT activity in serum of mice which were administered test compounds was compared with the OCT activity in serum of normal mice and in control mice which were administered only 20% aqueous ethanol.

The subject of series [5] is glutamic oxaloacetic transaminase (GOT) in serum, CCl4-administered mice. The experiment in a line: Activity against carbon tetrachloride-induced hepatic disease (serum GOT). In kind it is in vivo, dd male mice. The procedure: as §1, §2

A word on the LD50: it is the dose at which mortality reaches 50%. Low values mean a more toxic substance, high ones a less toxic substance.

With `O=C(OCC1(COC(=O)c2cccnc2)CCCC(COC(=O)c2cccnc2)(COC(=O)c2cccnc2)C1O)c1cccnc1` [Nicomol, 2,2,6,6-tetrakis(nicotinoyloxymethyl)cyclohexanol, reference compound], the Serum cholesterol value came out at 146.1 ± 14.7 mg/dL in series [1] (Table 1, 640 mg/kg, normal 98.6 ± 10.8, hypercholesterolemic 172.2 ± 8.6); 139.4 ± 4.4 mg/dL in series [1] (Table 2, 640 mg/kg, normal 101.0 ± 5.8, hypercholesterolemic 194.3 ± 9.5); 138.3 ± 12.5 mg/dL in series [1] (Table 3, 640 mg/kg, normal 109.1 ± 9.3, hypercholesterolemic 164.0 ± 12.8); 142.7 ± 11.5 mg/dL in series [1] (Table 4, 640 mg/kg, normal 111.3 ± 8.6, hypercholesterolemic 165.0 ± 13.4). Further, in series [2], the “blood cholesterol concentration lowering” value is on record as “not necessarily sufficient for lowering blood cholesterol”.

As to `Cc1c(C)c2c(c(C)c1O)CCC(C)(CCOC(=O)c1cccnc1)O2` (centres unmarked) [Compound 1, 3,4-dihydro-2-nicotinoyloxyethyl-2,5,7,8-tetramethyl-2H-benzopyran-6-ol], in series [1] (Table 1, 355 mg/kg, normal 98.6 ± 10.8, hypercholesterolemic 172.2 ± 8.6), the Serum cholesterol value was found to be 130.7 ± 11.3 mg/dL. In “Acute toxicity (LD50)”, this compound showed an LD50 of over 5000 mg/kg.

As for `O=C(OCC(COC(=O)c1cccnc1)(COC(=O)c1cccnc1)COC(=O)c1cccnc1)c1cccnc1` [pentaerythritol tetranicotinate], in series [2], the “blood cholesterol concentration lowering” value is given as “not necessarily sufficient for lowering blood cholesterol”.

In turn, `Cc1c(C)c2c(c(C)c1OC(=O)c1cccnc1)CCC(C)(CC(COC(=O)c1cccnc1)OC(=O)c1cccnc1)O2` (centres unmarked) [Compound 7] came in with a Serum cholesterol value in series [1] (Table 3, 571 mg/kg, normal 109.1 ± 9.3, hypercholesterolemic 164.0 ± 12.8) of 143.6 ± 10.8 mg/dL.

For the compound `Cc1c(C)c2c(c(C)c1OC(=O)c1cccnc1)CCC(C)(CCCOC(=O)c1cccnc1)O2` (centres unmarked) [Compound 6, 3,4-dihydro-2-nicotinoyloxypropyl-2,5,7,8-tetramethyl-2H-benzopyran-6-yl nicotinate], in series [1] (Table 1, 474 mg/kg, normal 98.6 ± 10.8, hypercholesterolemic 172.2 ± 8.6), the Serum cholesterol value was found to be 123.8 ± 13.8 mg/dL.

In the case of `Cc1c(C)c2c(c(C)c1O)CCC(C)(COC(=O)c1cccnc1)O2` (centres unmarked) [Compound 4], the Serum cholesterol value in series [1] (Table 1, 341 mg/kg, normal 98.6 ± 10.8, hypercholesterolemic 172.2 ± 8.6) stood at 159.4 ± 13.4 mg/dL.

For the compound `Cc1c(C)c2c(c(C)c1OC(=O)c1cccnc1)CCC(C)(COC(=O)c1cccnc1)O2` (centres unmarked) [Compound 5, 3,4-dihydro-2-nicotinoyloxymethyl-2,5,7,8-tetramethyl-2H-benzopyran-6-yl nicotinate], the “inhibition of increase of GPT activity induced by CCl4” value in series [3] (in words) is “excellent inhibition of increase of GOT and GPT activities induced by CCl4 in a similar degree to that of Compound 2”. In addition, the Serum cholesterol value in series [1] (Table 1, 452 mg/kg, normal 98.6 ± 10.8, hypercholesterolemic 172.2 ± 8.6) was 127.9 ± 14.2 mg/dL. Moreover, the “cholesterol lowering activity compared with Nicomol” value in series [1] (relative to Nicomol) was “about two times higher cholesterol lowering activity than Nicomol”. Also, in series [4] (in words), the “inhibition of increase of OCT activity induced by alcohol” value is reported as “excellent inhibition of increase of OCT activity induced by alcohol in a similar degree to that of Compound 2”. Also, in series [5] (in words), the “inhibition of increase of GOT activity induced by CCl4” value is “excellent inhibition of increase of GOT and GPT activities induced by CCl4 in a similar degree to that of Compound 2”.

For `Cc1c(C)c2c(c(C)c1OC(=O)c1cccnc1)CCC(C)(CCO)O2` (centres unmarked) [Compound 3], the Serum cholesterol value in series [1] (Table 4, 355 mg/kg, normal 111.3 ± 8.6, hypercholesterolemic 165.0 ± 13.4) worked out at 144.0 ± 10.5 mg/dL.

As for `O=C(O)c1cccnc1` [nicotinic acid], the “blood cholesterol concentration lowering” value in series [2] is reported as “temporarily lowered, but the lowered concentration is not sustained”.

On to `Cc1c(C)c2c(c(C)c1OC(=O)c1cccnc1)CCC(C)(CCOC(=O)c1cccnc1)O2` (centres unmarked) [Compound 2, 3,4-dihydro-2-nicotinoyloxyethyl-2,5,7,8-tetramethyl-2H-benzopyran-6-yl nicotinate], for which the “GPT activity (average)” value in series [3] (Table 6, 300 mg/kg, p.o., normal 74.0 ± 16.3, CCl4-administered 1251.4 ± 285.4) amounted to 765.7 ± 84.4. Also, the Serum cholesterol value in series [1] (Table 2, 300 mg/kg, normal 101.0 ± 5.8, hypercholesterolemic 194.3 ± 9.5) worked out at 139.6 ± 9.3 mg/dL. Further, the “OCT activity unit (mean ± S.E.)” value in series [4] (Table 5, 300 mg/kg, p.o., twice a day, 4 weeks, normal 5.1 ± 3.2, ethanol-administered 122.5 ± 17.0) is on record as 79.6 ± 12.2 unit. For the same compound, the “GOT activity (average)” value in series [5] (Table 6, 300 mg/kg, p.o., normal 87.9 ± 5.3, CCl4-administered 914.3 ± 195.1) came to 582.9 ± 59.8. The compound further gave an LD50 in the series “Acute toxicity (LD50)” of over 5000 mg/kg.

The record behind these values is patent US4681890A, “3,4-dihydrobenzopyran compounds and pharmaceutical composition containing the same” (Kuraray Co., Ltd., priority 1984, dated 1987).
